According to US7776858B2, “Methods of treatment of chronic pain using eszopiclone” (Sepracor Inc., priority 2004, dated 2010):

Assays:
[1] = system: subjects with insomnia related to rheumatoid arthritis; assay: Arthritis Self-Efficacy Scale, clinical study of eszopiclone 3 mg vs placebo; type: in vivo, human; conditions: 3 mg nightly, ITT; for Arthritis Self-Efficacy Scale Function, Change from Baseline, Least Squares Means (SE) [2] / Arthritis Self-Efficacy Scale Other Symptoms, Change from Baseline, Least Squares Means (SE) [2] / Arthritis Self-Efficacy Scale Overall, Change from Baseline, Least Squares Means (SE) [2] / Arthritis Self-Efficacy Scale Pain and Other Symptoms, Change from Baseline, Least Squares Means (SE) [2] / Arthritis Self-Efficacy Scale Pain, Change from Baseline, Least Squares Means (SE) [2]: ANCOVA
Experimental: The study was aimed at observing the effect of eszopiclone 3 mg compared to placebo on daytime function in subjects with insomnia related to rheumatoid arthritis. The study was a multicenter, randomized, double-blind, placebo controlled, parallel group study.
A total of 153 subjects were randomized. Among them, 77 received 3 mg of eszopiclone (ESZ) nightly (at bedtime) for four weeks and 76 received matching placebo (PBO). […] In addition, subjects had insomnia symptoms including wake time after sleep onset (WASO) of ≧45 minutes, and total sleep time ≦6.5 hours. Diagnosis of rheumatoid arthritis predated the onset of insomnia symptoms.
During the double blind treatment, subjects were dosed with 3 mg eszopiclone (ESZ) or matching placebo (PBO) nightly (at bedtime) for four weeks. Data was analyzed with one-sided significance tests.

conscious dogs = assay: Dose escalation safety study, cardiovascular and respiratory parameters after acute intravenous administration; conditions: acute intravenous, 3, 5 and 12 mg/kg
Experimental: To establish the safety of eszopiclone, a dose escalation study was carried out. Cardiovascular and respiratory parameters were evaluated in conscious dogs following acute intravenous administration of (R)-, (S)- or racemic zopiclone at three doses (3, 5 and 12 mg/kg).

## CN1CCN(C(=O)O[C@H]2c3nccnc3C(=O)N2c2ccc(Cl)cn2)CC1 [Eszopiclone, (+) 6-(5-chloropyrid-2-yl)-5-(4-methylpiperazin-1-yl)carbonyloxy-7-oxo-6,7-dihydro-5H-pyrrolo[3-4-b]pyrazine]
[1]; visit 5 (Week 4)
  Arthritis Self-Efficacy Scale Pain, Observed Value, Median: 28.0
  Arthritis Self-Efficacy Scale Pain, Observed Value, Minimum: 8.0
  Arthritis Self-Efficacy Scale Function, Change from Baseline, Least Squares Means (SE) [2]: 4.2 (1.7)
  Arthritis Self-Efficacy Scale Other Symptoms, Change from Baseline, Least Squares Means (SE) [2]: 3.4 (1.2)
  Arthritis Self-Efficacy Scale Overall, Change from Baseline, Least Squares Means (SE) [2]: 10.4 (3.2)
  Arthritis Self-Efficacy Scale Pain and Other Symptoms, Change from Baseline, Least Squares Means (SE) [2]: 6.6 (1.9)
  Arthritis Self-Efficacy Scale Pain, Change from Baseline, Least Squares Means (SE) [2]: 3.1 (1.0)
[1]; visit 6 (EOS)
  Arthritis Self-Efficacy Scale Function, Change from Baseline, 25th Percentile: −1.0
  Arthritis Self-Efficacy Scale Function, Change from Baseline, 75th Percentile: 14.0
  Arthritis Self-Efficacy Scale Function, Change from Baseline, Maximum: 58.0
  Arthritis Self-Efficacy Scale Function, Change from Baseline, Mean (SD): 6.8 (15.6)
  Arthritis Self-Efficacy Scale Function, Change from Baseline, Median: 5.0
  Arthritis Self-Efficacy Scale Function, Change from Baseline, Minimum: −45.0
  Arthritis Self-Efficacy Scale Function, Observed Value, 25th Percentile: 45.0
  Arthritis Self-Efficacy Scale Function, Observed Value, 75th Percentile: 85.0
  Arthritis Self-Efficacy Scale Function, Observed Value, Maximum: 90.0
  Arthritis Self-Efficacy Scale Function, Observed Value, Mean (SD): 64.1 (20.5)
  Arthritis Self-Efficacy Scale Function, Observed Value, Median: 65.0
  Arthritis Self-Efficacy Scale Function, Observed Value, Minimum: 23.0
  Arthritis Self-Efficacy Scale Other Symptoms, Change from Baseline, 25th Percentile: −2.5
  Arthritis Self-Efficacy Scale Other Symptoms, Change from Baseline, 75th Percentile: 10.0
  Arthritis Self-Efficacy Scale Other Symptoms, Change from Baseline, Maximum: 39.0
  Arthritis Self-Efficacy Scale Other Symptoms, Change from Baseline, Mean (SD): 3.8 (10.7)
  Arthritis Self-Efficacy Scale Other Symptoms, Change from Baseline, Median: 3.0
  Arthritis Self-Efficacy Scale Other Symptoms, Change from Baseline, Minimum: −24.0
  Arthritis Self-Efficacy Scale Other Symptoms, Observed Value, 25th Percentile: 31.0
  Arthritis Self-Efficacy Scale Other Symptoms, Observed Value, 75th Percentile: 51.0
  Arthritis Self-Efficacy Scale Other Symptoms, Observed Value, Maximum: 59.0
  Arthritis Self-Efficacy Scale Other Symptoms, Observed Value, Mean (SD): 40.6 (12.6)
  Arthritis Self-Efficacy Scale Other Symptoms, Observed Value, Median: 41.5
  Arthritis Self-Efficacy Scale Other Symptoms, Observed Value, Minimum: 8.0
  Arthritis Self-Efficacy Scale Overall, Change from Baseline, 25th Percentile: −3.0
  Arthritis Self-Efficacy Scale Overall, Change from Baseline, 75th Percentile: 32.0
  Arthritis Self-Efficacy Scale Overall, Change from Baseline, Maximum: 84.0
  Arthritis Self-Efficacy Scale Overall, Change from Baseline, Mean (SD): 14.0 (30.5)
  Arthritis Self-Efficacy Scale Overall, Change from Baseline, Median: 12.5
  Arthritis Self-Efficacy Scale Overall, Change from Baseline, Minimum: −89.0
  Arthritis Self-Efficacy Scale Overall, Observed Value, 25th Percentile: 111.0
  Arthritis Self-Efficacy Scale Overall, Observed Value, 75th Percentile: 163.0
  Arthritis Self-Efficacy Scale Overall, Observed Value, Maximum: 193.0
  Arthritis Self-Efficacy Scale Overall, Observed Value, Mean (SD): 134.5 (35.9)
  Arthritis Self-Efficacy Scale Overall, Observed Value, Median: 133.0
  Arthritis Self-Efficacy Scale Overall, Observed Value, Minimum: 50.0
  Arthritis Self-Efficacy Scale Pain and Other Symptoms, Change from Baseline, 25th Percentile: −5.0
  Arthritis Self-Efficacy Scale Pain and Other Symptoms, Change from Baseline, 75th Percentile: 17.0
  Arthritis Self-Efficacy Scale Pain and Other Symptoms, Change from Baseline, Maximum: 52.7
  Arthritis Self-Efficacy Scale Pain and Other Symptoms, Change from Baseline, Mean (SD): 7.0 (18.5)
  Arthritis Self-Efficacy Scale Pain and Other Symptoms, Change from Baseline, Median: 7.5
  Arthritis Self-Efficacy Scale Pain and Other Symptoms, Change from Baseline, Minimum: −44.0
  Arthritis Self-Efficacy Scale Pain and Other Symptoms, Observed Value, 25th Percentile: 55.0
  Arthritis Self-Efficacy Scale Pain and Other Symptoms, Observed Value, 75th Percentile: 88.0
  Arthritis Self-Efficacy Scale Pain and Other Symptoms, Observed Value, Maximum: 107.0
  Arthritis Self-Efficacy Scale Pain and Other Symptoms, Observed Value, Mean (SD): 70.0 (21.0)
  Arthritis Self-Efficacy Scale Pain and Other Symptoms, Observed Value, Median: 71.0
  Arthritis Self-Efficacy Scale Pain and Other Symptoms, Observed Value, Minimum: 27.0
  Arthritis Self-Efficacy Scale Pain, Change from Baseline, 25th Percentile: −4.0
  Arthritis Self-Efficacy Scale Pain, Change from Baseline, 75th Percentile: 8.0
  Arthritis Self-Efficacy Scale Pain, Change from Baseline, Maximum: 35.0
  Arthritis Self-Efficacy Scale Pain, Change from Baseline, Mean (SD): 2.7 (10.5)
  Arthritis Self-Efficacy Scale Pain, Change from Baseline, Median: 2.0
  Arthritis Self-Efficacy Scale Pain, Change from Baseline, Minimum: −20.0
  Arthritis Self-Efficacy Scale Pain, Observed Value, 25th Percentile: 22.0
  Arthritis Self-Efficacy Scale Pain, Observed Value, 75th Percentile: 37.0
  Arthritis Self-Efficacy Scale Pain, Observed Value, Maximum: 49.0
  Arthritis Self-Efficacy Scale Pain, Observed Value, Mean (SD): 29.2 (9.8)
  Arthritis Self-Efficacy Scale Pain, Observed Value, Median: 30.0
  Arthritis Self-Efficacy Scale Pain, Observed Value, Minimum: 9.0
  Arthritis Self-Efficacy Scale Function, Change from Baseline, Least Squares Means (SE) [2]: 6.2 (1.6)
  Arthritis Self-Efficacy Scale Other Symptoms, Change from Baseline, Least Squares Means (SE) [2]: 3.3 (1.1)
  Arthritis Self-Efficacy Scale Overall, Change from Baseline, Least Squares Means (SE) [2]: 12.4 (2.9)
  Arthritis Self-Efficacy Scale Pain and Other Symptoms, Change from Baseline, Least Squares Means (SE) [2]: 6.1 (1.8)
  Arthritis Self-Efficacy Scale Pain, Change from Baseline, Least Squares Means (SE) [2]: 2.4 (0.9)
Conscious dogs
  Blood gases and blood chemistries (pH, pCO2, pO2, hematocrit, and lactate): remained unaffected
  cardiotoxicity by electrocardiogram (ECG): No evidence of cardiotoxicity
  effect on blood pressure: dose dependent, transient decreases
  effect on heart rate: compensatory increase
